{"source": "patent US20040116529A1", "about": "“Anticancer and chemopreventative agents and methods of use thereof” (priority 2001, published 2004)", "key": {"[1]": {"tested_on": "prostate specific antigen (PSA)", "test": "Intracellular PSA levels in LNCaP cells exposed to DBM (Western analysis)", "assay_type": "cell-based, human", "excerpt": "(§1) LNCaP cells cultured in the presence of androgens secrete prostate specific antigen (PSA) into the culture medium."}, "[2]": {"tested_on": "prostate specific antigen (PSA)", "test": "Extracellular PSA secreted by LNCaP cells exposed to DBM (ELISA analysis)", "assay_type": "cell-based, human", "settings": "baseline about 700", "excerpt": "as §1"}, "[3]": {"tested_on": "TRAMP (TRansgenic Adenocarcinoma of Mouse Prostate) mice", "test": "Prostate carcinogenesis in TRAMP mice fed 1% DBM diet", "assay_type": "in vivo", "excerpt": "In other words, development of premalignant prostatic intraepithelial (PIN) neoplasia and primary adenocarcinoma of the prostate of TRAMP mice is similar to the development of prostate cancer in humans. TRAMP mice are discussed in greater detail in U.S. Pat. No. 5,907,087, which is incorporated herein by reference.\n(§2) Two groups of TRAMP mice were studied, where one is a control cohort and the other is the cohort fed DBM."}, "[4]": {"test": "Serum DBM levels in TRAMP mice fed 1% DBM diet", "assay_type": "in vivo, mouse", "excerpt": "as §2"}, "[5]": {"tested_on": "human prostate cancer cells", "test": "Proliferation of human prostate cancer cells in vitro", "assay_type": "cell-based"}}}
{"smiles": "O=C(CC(=O)c1ccccc1)c1ccccc1", "note": "[DBM, dibenzoylmethane]", "values": [{"measurement": "DBM concentration at which intracellular PSA is not readily detectable by Western analysis", "setting": "[1]", "value": "≥ 10", "unit": "µM"}, {"measurement": "PSA levels", "setting": "[1]; DBM at 10, 25 and 50 micromolar", "value": "dose-dependent down regulation"}, {"measurement": "Extracellular PSA", "setting": "[2]; 25 micromolar DBM", "value": "~150", "unit": "nanograms per milliliter"}, {"measurement": "Extracellular PSA", "setting": "[2]; 50 micromolar DBM", "value": "~100", "unit": "nanograms per milliliter"}, {"measurement": "Extracellular PSA", "setting": "[2]; at micromolar DBM (concentration not given)", "value": "approximately 200 nanograms per milliliter"}, {"measurement": "cancer and high-grade prostatic intraepithelial neoplasia versus control cohort", "setting": "[3]; 1% DBM diet, at 18 weeks", "value": "significantly less cancer and high-grade prostatic intraepithelial neoplasia"}, {"measurement": "mice developing either adenocarcinoma or high grade PIN", "setting": "[3]; diet of 1% DBM (weight/weight) in AIN-76A from six weeks of age, control cohort 6 of 10", "value": "2 of 11"}, {"measurement": "serum levels of DBM", "setting": "[4]; diet of 1% DBM from six weeks of age", "value": 1000, "unit": "nM"}, {"measurement": "oral absorption from the gastrointestinal tract", "setting": "[4]; oral DBM in diet", "value": "orally bioavailable"}, {"measurement": "proliferation of human prostate cancer cells in vitro", "setting": "[5]", "value": "inhibit proliferation"}]}
